Assay results reported in patent publication EP2974714B1, “USE OF DERIVATIVES WITH C-O-P BONDS IN PATIENTS WITH RENAL FAILURE” (LABORATORIS SANIFIT, S.L., priority 2013, dated 2014).

Tests used:
[1] = HAP crystallisation induction period (synergy with other treatments); assay type: physicochemical; conditions: drug effect simulated by modifying calcium and phosphate concentrations; control 8 minutes
Experimental: Experimental: hydroxyapatite (HAP) was crystallised by mixing appropriate concentrations of calcium and phosphate at pH 7.4. The effect of cinacalcet and sevelamer was simulated by suitably modifying the calcium and phosphate concentrations. The induction period (time required for HAP to begin to crystallise) was recorded as the analytical signal.

[2] = system: vit D-induced cardiovascular calcification in rats; assay: Inhibition of vit D-induced (300,000 IU/kg x 3) cardiovascular calcification by s.c. IP6; assay type: in vivo, male SD rats; conditions: s.c.
Experimental: Experimental: male SD rats were divided into 9 groups. Two of said groups (sham and control groups) received s.c. saline 2 ml/kg; 6 groups received s.c. […] One group was treated with a s.c. Alzet pump loaded with 200 mg/ml IP6. Calcification was induced by oral administration of 300,000 IU/kg vitamin D (2 ml/kg) for 3 days starting on treatment day 3. […] The calcium content in heart, aorta and kidneys was determined after treatment for 7 days.

## C[C@@H](NCCCc1cccc(C(F)(F)F)c1)c1cccc2ccccc12 [cinacalcet, reference compound]
[1]
  induction time (without IP6): 14 min

## O=P([O-])([O-])OP(=O)([O-])[O-].[Na+].[Na+].[Na+].[Na+] [pyrophosphate, sodium pyrophosphate, reference compound]
[2]
  dose causing the same effect as 10 mg/kg IP6: 28 mg/kg
[2]; at higher doses than IP6
  efficacy against calcification (in words): good efficacy
